Here are results for 28 compounds from ChEMBL document CHEMBL1122257, “Synthesis and anticonvulsant activity of some tetracyclic indole derivatives” (1983).

As usually defined, the ED50 is the dose that gives a 50% effect, or the effect in half of the subjects. The low end stands for greater potency, the high end for weaker potency.

Common to all, as to format: functional
Assay [1] relates to Rattus norvegicus. As to the kind of experiment: Tested anticonvulsant activity in 6 rats after oral administration of 30 mg/kg po dose for rotarod performance; 0/6.
In assay [2] the test system is Rattus norvegicus. As to the kind of experiment: Tested for anticonvulsant activity in 3 rats after oral administration of 30 mg/kg po dose for protection against maximal electroshock in rat MES test; 0/3.
Assay [3] concerns Rattus norvegicus. As to the kind of experiment: Anticonvulsant activity in rats after oral administration of 30 mg/kg dose(effective dosage).
Assay [4] deals with Rattus norvegicus. As to the kind of experiment: Tested for anticonvulsant activity in 3 rats after oral administration of 30 mg/kg po dose for protection against maximal electroshock in rat MES test; 2/3. Background: Protection in the maximal electroshock model is a classic sign of anticonvulsant action.
Assay [5] relates to Rattus norvegicus. As to the kind of experiment: Tested for anticonvulsant activity in 3 rats after oral administration of 30 mg/kg po dose for protection against maximal electroshock in rat MES test; 3/3.
Assay [6] relates to Rattus norvegicus. As to the kind of experiment: Tested anticonvulsant activity in 6 rats after oral administration of 300 mg/kg po dose for rotarod performance; 0/6. Background: Falling from the rotarod earlier than controls is read as motor impairment.
Assay [7] relates to Rattus norvegicus. As to the kind of experiment: Tested for anticonvulsant activity in 3 rats after oral administration of 30 mg/kg po dose for protection against maximal electroshock in rat MES test; 1/3.
For assay [8], the system named is Rattus norvegicus. As to the kind of experiment: Tested anticonvulsant activity in 6 rats after oral administration of 30 mg/kg po dose for rotarod performance; 1/6.
For assay [9], the system named is Rattus norvegicus. As to the kind of experiment: Anticonvulsant activity in rats after oral administration of 30 mg/kg dose for rotarod performance; 0/6.

For the compound `CN(C)C(=O)C1CCc2cccc3c4c(n1c23)CCCCC4` (stereo unspecified), the Reactors/Test group in the assay with Rattus norvegicus [1] and in the assay with Rattus norvegicus [2] was 0 throughout.

In the case of `CN(C)CC1Cc2cccc3c4c(n(c23)C1)CCCCC4` (stereo unspecified), the Reactors/Test group in the assay with Rattus norvegicus [1] and in the assay on Rattus norvegicus [2] was 0 in each case.

For `CN(C)CC1Cc2cccc3c4c(n1c23)CCCCCC4` (stereo unspecified), the Reactors/Test group in the assay on Rattus norvegicus [1] and in the assay with Rattus norvegicus [2] was 0 each time.

As to `CN(C)CC1CCc2cccc3c4c(n1c23)CCCCC4` (stereo unspecified), the Reactors/Test group with Rattus norvegicus [1] stood at 0; with Rattus norvegicus [4] it was 2. The compound further had an ED50 with Rattus norvegicus [3] of 78.9 mg/kg.

Consider `CN(C)CCC1CCc2cccc3c4c(n1c23)CCCCC4` (stereo unspecified), for which the results for the Reactors/Test group in the assay on Rattus norvegicus [1] and with Rattus norvegicus [5] were 0 and 3, respectively. In the assay with Rattus norvegicus [3], this compound yielded a median effective dose (ED50) of 27.4 mg/kg.

`CN(C)CC1CCc2cccc3c4c(n1c23)-c1ccccc1SC4` (stereo unspecified): the Reactors/Test group in the assay on Rattus norvegicus [1] and with Rattus norvegicus [2] was 0 throughout.

In the case of `CN(C)CC1Cc2cccc3c4c(n1c23)CCCC4` (stereo unspecified), the figures for the Reactors/Test group in the assay with Rattus norvegicus [1] and with Rattus norvegicus [5] were 0 and 3, respectively. This compound registered a 50% effective dose (ED50) in the assay with Rattus norvegicus [3] of 19.2 mg/kg.

Consider `CN(C)CCC1CCc2cccc3c4c(n1c23)CCN(C)C4` (stereo unspecified), for which the Reactors/Test group in the assay with Rattus norvegicus [1] and in the assay with Rattus norvegicus [2] was 0 in each case.

As to `CN(C)CC1CCc2cccc3c4c(n1c23)CCCCCC4` (stereo unspecified), the Reactors/Test group with Rattus norvegicus [1] and in the assay with Rattus norvegicus [2] was 0 in each case.

`CN(C)CC1Cn2c3c(c4cccc1c42)CCCCCC3` (stereo unspecified): the Reactors/Test group with Rattus norvegicus [1] and in the assay with Rattus norvegicus [2] was 0 in each case.

Consider `CN(C)CC1CCc2cccc3c4c(n1c23)CCC4` (stereo unspecified), for which the Reactors/Test group in the assay on Rattus norvegicus [1] is 0; in the assay with Rattus norvegicus [5], 3. This compound showed an ED50 with Rattus norvegicus [3] of 12.5 mg/kg.

Consider `CN(C)CC1Cn2c3c(c4cccc1c42)CCCCC3` (stereo unspecified), for which the Reactors/Test group in the assay with Rattus norvegicus [1] and in the assay on Rattus norvegicus [2] was 0 in each case.

Take `CN(C)CC1CCc2cccc3c4c(n1c23)CCCC4` (stereo unspecified): the Reactors/Test group with Rattus norvegicus [6] came out at 0; in the assay with Rattus norvegicus [5], 3.

`CN1CCN(C(=O)C2CCc3cccc4c5c(n2c34)CCCCC5)CC1` (stereo unspecified): the Reactors/Test group in the assay with Rattus norvegicus [1] and in the assay on Rattus norvegicus [2] was 0 in each case.

Regarding `CN(C)CCC1CCc2cccc3c4c(n1c23)CCCC4` (stereo unspecified), the Reactors/Test group came to 0 in the assay with Rattus norvegicus [1] and 2 in the assay with Rattus norvegicus [4].

Consider `CNC(=O)C1CCc2cccc3c4c(n1c23)CCCC4` (stereo unspecified), for which the Reactors/Test group with Rattus norvegicus [1] and with Rattus norvegicus [2] was 0 in each case.

As to `CNC(=O)C1CCc2cccc3c4c(n1c23)CCC4` (stereo unspecified), the Reactors/Test group in the assay on Rattus norvegicus [1] and in the assay on Rattus norvegicus [2] was 0 in each case.

Consider `CN(C)CCC1CCc2cccc3c4c(n1c23)CCCCCC4` (stereo unspecified), for which the Reactors/Test group with Rattus norvegicus [1] and in the assay with Rattus norvegicus [2] was 0 throughout.

`CN(C)CC1CCc2cccc3c4c(n1c23)-c1ccccc1CC4` (stereo unspecified): the Reactors/Test group with Rattus norvegicus [7] and with Rattus norvegicus [8] was 1 throughout.

Regarding `CNC(=O)C1CCc2cccc3c4c(n1c23)CCCCC4` (stereo unspecified), the figures for the Reactors/Test group in the assay with Rattus norvegicus [1] and in the assay on Rattus norvegicus [5] were 0 and 3, respectively. The same compound showed a 50% effective dose (ED50) with Rattus norvegicus [3] of 12.9 mg/kg.

Take `CN(C)CC1CCc2cccc3c4c(n1c23)CCSC4` (stereo unspecified): the Reactors/Test group with Rattus norvegicus [1] and in the assay with Rattus norvegicus [2] was 0 each time.

In the case of `CN(C)CCC1CCc2cccc3c4c(n1c23)CCSC4` (stereo unspecified), the Reactors/Test group in the assay on Rattus norvegicus [8] worked out at 1; in the assay on Rattus norvegicus [2], 0.

Regarding `CN(C)CCC1CCc2cccc3c4c(n1c23)CCC4` (stereo unspecified), the Reactors/Test group in the assay on Rattus norvegicus [1] and with Rattus norvegicus [2] was 0 in each case.

As to `CN(C)CC1Cc2cccc3c4c(n(c23)C1)Cc1ccccc1-4` (stereo unspecified), the Reactors/Test group in the assay with Rattus norvegicus [8] was 1; with Rattus norvegicus [2] it was 0.

On to `CN(C)CC1Cc2cccc3c4c(n(c23)C1)CCCCCC4` (stereo unspecified), for which the Reactors/Test group in the assay with Rattus norvegicus [8] is listed as 1; in the assay on Rattus norvegicus [2], 0.

In the case of `CN(C)CC1Cc2cccc3c4c(n1c23)CCCCC4` (stereo unspecified), the Reactors/Test group in the assay on Rattus norvegicus [1] and with Rattus norvegicus [2] was 0 throughout.

In the case of `CNCC1CCc2cccc3c4c(n1c23)CCCCC4` (stereo unspecified), the Reactors/Test group in the assay on Rattus norvegicus [1] and in the assay on Rattus norvegicus [2] was 0 throughout.

The compound `O=C1NC(=O)C(c2ccccc2)(c2ccccc2)N1` [PHENYTOIN] showed an ED50 in the assay on Rattus norvegicus [3] of 42.3 mg/kg. In the assay with Rattus norvegicus [9], this compound registered a Reactors/Test group of 0.
